According to patent US20240298644A1, “HETEROCYCLIC COMPOUND AND RESISTANT HARMFUL ARTHROPOD- CONTROLLING METHOD FOR COMPOSITION CONTAINING SAME” (SUMITOMO CHEMICAL COMPANY, LIMITED, priority 2021, published 2024):

Columns and labels:
[1] = tested on: resistant cotton aphids (Aphis gossypii) (lineages collected in Miyazaki prefecture in 2012, screened with imidacloprid); assay: Test method 1: foliar spray on cucumber seedlings infested with resistant cotton aphids; type: in vivo; settings: Comparative Test Example 1, 500 ppm
Experimental: Test compounds are made to a formulation according to a similar method to that described in the Formulation example 1, and thereto is added water containing 0.03 v/v % of Shindain (registered trademark) to prepare a diluted solution containing a prescribed concentration of the test compound.
Cucumber (cucumber sativus) seedling (on the developmental stage of the second true leaf) is planted in a cup, and approximately 30 resistant cotton aphids (Aphis gossypii) (all stages of life) (lineages collected in Miyazaki prefecture in 2012, screened with imidacloprid). After one day, the diluted solutions are sprayed into the seedling at a ratio of 10 mL/seedling. After 5 days, the number of the surviving insects is examined and the controlling value is calculated by the following equation.
Controlling value (%)−{1−(Cb×Tai)/(Cai×Tb)}×100
wherein the symbols in the equation represent the following descriptions. • Cb: Number of the test insects in untreated group; • Cai: Number of the surviving insects at the time of the examination in untreated group; • Tb: Number of the test insects in treated group; • Tai: Number of the surviving insects at the time of the examination in treated group;
Here the “untreated group” represents a group where a similar treatment procedure to that of treated group except not using the test compound is done.

[2] = Test method 2: spray on rice seedlings, resistant brown planthopper larvae released; type: in vivo; settings: Nilaparvata lugens, Comparative Test Example 2, 500 ppm
Experimental: Test compounds are made to a formulation according to a similar method to that described in the Formulation example 5, and thereto is added water containing 0.03 v/v % of Shindain (registered trademark) to prepare a diluted solution containing a prescribed concentration of the test compound.
Rice (Oryza sativa) seedling (on the developmental stage of the second true leaf) is planted in a container, and the diluted solutions are sprayed into the seedling in a ratio of 10 mL/seedling. Thereafter, 20 of 3rd instar larvae of resistant brown planthoppers (Nilaparvata lugens) (lineages collected in Kagoshima prefecture in 2018, screened with imidacloprid) are released onto the rice leaves. After 6 days, the number of the surviving insects is examined and the mortality is calculated by the following equation.
Mortality (%)={1−the number of the surviving insects/20}×100

[3] = Test method 5: spray on tomato seedlings carrying larvae of resistant tobacco whiteflies; settings: Bemisia tabaci

Measured: mortality at 500 ppm

N#Cc1ccc(-c2nc(-c3c(Cl)cncc3Cl)no2)cc1 [Comparative compound 1]
10%: all assays above
